Experimental findings from ChEMBL document CHEMBL1201862, “PubChem BioAssay data set” (2004) are described below.

Among the test systems are OVCAR-8; M14; A498; HOP-92; TK-10; 786-0; SF-295; SNB-19; KM12; OVCAR-3; SN12C; HT-29; UO-31; OVCAR-5; NCI-H226; SW-620; COLO 205; SK-MEL-2; IGROV-1; RXF 393.
Holding throughout (test): NCI tumour cell line growth inhibition, 48 h

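48-hour exposure; five concentrations; linearly interpolated endpoints. GI50 = concentration required for 50% inhibition of growth.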 Activity calls are given as the source filed them. Cut-off read from the data, not from the text of the source: active = GI50 up to about 1.1 µM and inactive = higher.

Consider `C=Cc1cnc([N+](=O)[O-])n1C`, for which the GI50 in the assay on OVCAR-8 was > 100 µM (inactive); in the assay with M14, 65.5 µM (inactive); in the assay on A498, 34.3 µM (inactive); in the assay with HOP-92 it was 35.8 µM (inactive); in the assay on TK-10, 36.1 µM (inactive); in the assay with 786-0 it was > 100 µM (inactive). Besides, the GI50 in the assay with SF-295 is 35.2 µM (inactive); in the assay on SNB-19, > 100 µM (inactive); with KM12, 36.2 µM (inactive); in the assay on OVCAR-3, 69.7 µM (inactive); in the assay on SN12C, > 100 µM (inactive); in the assay on HT-29, > 100 µM (inactive). In addition, the GI50 in the assay with UO-31 is 27.4 µM (inactive); with OVCAR-5, > 100 µM (inactive); in the assay with NCI-H226 it was > 100 µM (inactive); with SW-620, 62.1 µM (inactive); in the assay with COLO 205 it was 46.5 µM (inactive).
On to `C=C1Oc2nc3ccccc3c(=O)n2C1(C)C`, for which the GI50 with OVCAR-8, with M14, with SK-MEL-2, with A498, in the assay with HOP-92 and with TK-10 was > 100 µM (inactive) in each case. In addition, the GI50 was > 100 µM (inactive) in the assay on 786-0; > 10 µM (inactive) with SF-295; > 100 µM (inactive) in the assay on SNB-19; > 10 µM (inactive) with KM12; > 10 µM (inactive) with OVCAR-3; > 100 µM (inactive) in the assay on SN12C. Further, the GI50 in the assay on HT-29, with UO-31, in the assay with OVCAR-5, with IGROV-1, with NCI-H226 and with SW-620 was > 100 µM (inactive) throughout. Further, the GI50 in the assay with COLO 205 is > 100 µM (inactive).
For `O=c1c2ccccc2nc(-c2ccc(Br)cc2)n1NC1OC(CO)C(O)C(O)C1O` (centres undefined), the GI50 in the assay on OVCAR-8 is 91.4 µM (inactive); in the assay with M14, > 100 µM (inactive); in the assay on SK-MEL-2, > 100 µM (inactive); in the assay with A498, > 100 µM (inactive); with HOP-92, > 100 µM (inactive); in the assay on TK-10 it was > 100 µM (inactive). The GI50 with 786-0 is > 100 µM (inactive); in the assay with SF-295 it was > 100 µM (inactive); in the assay with SNB-19, > 100 µM (inactive); in the assay with KM12, > 100 µM (inactive); with OVCAR-3, 31.3 µM (inactive); in the assay on SN12C, > 100 µM (inactive). Also, the GI50 is > 100 µM (inactive) in the assay with HT-29; 78 µM (inactive) in the assay on UO-31; > 100 µM (inactive) with OVCAR-5; > 100 µM (inactive) in the assay with IGROV-1; > 100 µM (inactive) in the assay on NCI-H226; > 100 µM (inactive) in the assay with SW-620. Moreover, the GI50 with COLO 205 was 59.8 µM (inactive).
Take `CCOC(=O)CC[C@H](NC(=O)c1nc[nH]c1/N=N/N(C)C)C(=O)OCC`: the GI50 in the assay on OVCAR-8, in the assay with M14, in the assay on SK-MEL-2, in the assay with A498, in the assay on 786-0 and with SF-295 was > 100 µM (inactive) throughout. The GI50 in the assay with SNB-19, with KM12, in the assay on OVCAR-3, in the assay on SN12C, with HT-29 and in the assay on UO-31 was > 100 µM (inactive) each time. Also, the GI50 in the assay on IGROV-1, with NCI-H226, in the assay with SW-620 and with COLO 205 was > 100 µM (inactive) each time.
As to `C=C1CC(C)(COc2ccc3c(C)c(C)c(=O)oc3c2C)OC1=O` (centres undefined), the GI50 in the assay on OVCAR-8 was 2.11 µM (inactive); in the assay with M14, 2.56 µM (inactive); in the assay with SK-MEL-2, 2.01 µM (inactive); in the assay on A498 it was 2.22 µM (inactive); with HOP-92, 1.26 µM (inactive); in the assay with TK-10, 1.15 µM (inactive). Further, the GI50 in the assay with 786-0 was 1.4 µM (inactive); with SF-295, 5.19 µM (inactive); with SNB-19, 13.4 µM (inactive); in the assay with KM12 it was 4.54 µM (inactive); in the assay on OVCAR-3 it was 3.3 µM (inactive); in the assay with SN12C, 2.04 µM (inactive). For the same compound, the GI50 was 2.17 µM (inactive) in the assay on HT-29; 9.18 µM (inactive) with UO-31; 6.27 µM (inactive) with OVCAR-5; 1.63 µM (inactive) with IGROV-1; 13.7 µM (inactive) in the assay with NCI-H226; 1.29 µM (inactive) in the assay on SW-620. Moreover, the GI50 in the assay on COLO 205 is 1.06 µM (active).
Turning to `CCOC(=O)/C(=C/c1ccc[nH]1)P(=O)(OCC)OCC`, the GI50 in the assay with OVCAR-8 was > 100 µM (inactive); in the assay on M14, > 100 µM (inactive); with SK-MEL-2 it was > 100 µM (inactive); in the assay on RXF 393, > 100 µM (inactive); with HOP-92, 94.2 µM (inactive); in the assay with TK-10, > 100 µM (inactive). In addition, the GI50 in the assay on 786-0, in the assay with SF-295, in the assay with SNB-19, with KM12, with OVCAR-3 and in the assay on SN12C was > 100 µM (inactive) throughout. The GI50 in the assay with HT-29, in the assay on UO-31, in the assay on OVCAR-5, with NCI-H226, in the assay on SW-620 and in the assay on COLO 205 was > 100 µM (inactive) each time.
For the compound `CC(=O)/C=C1\CC(=O)N(C)c2ccccc2N1`, the GI50 in the assay with OVCAR-8, in the assay on M14, with SK-MEL-2, with RXF 393, with HOP-92 and in the assay with TK-10 was > 100 µM (inactive) each time. Moreover, the GI50 with 786-0, in the assay with SF-295, in the assay with SNB-19, with KM12, with OVCAR-3 and with SN12C was > 100 µM (inactive) in each case. In addition, the GI50 in the assay with HT-29, in the assay on UO-31, in the assay with OVCAR-5, in the assay on IGROV-1, in the assay on NCI-H226 and with SW-620 was > 100 µM (inactive) in each case. Also, the GI50 with COLO 205 is 44.7 µM (inactive).
Consider `CC1(c2nc3ccccc3[nH]2)CCC(C#N)C(C)(C)O1` (centres undefined), for which the GI50 with OVCAR-8, in the assay on M14, in the assay with SK-MEL-2, in the assay on RXF 393, with HOP-92 and with TK-10 was > 100 µM (inactive) in each case. The GI50 in the assay with 786-0 is > 100 µM (inactive); in the assay with SF-295 it was > 100 µM (inactive); in the assay with SNB-19, > 100 µM (inactive); with KM12, 7.74 µM (inactive); in the assay on OVCAR-3, > 100 µM (inactive); in the assay with SN12C, > 100 µM (inactive). For the same compound, the GI50 was > 100 µM (inactive) with HT-29; 36 µM (inactive) in the assay with UO-31; > 100 µM (inactive) with OVCAR-5; > 100 µM (inactive) with IGROV-1; > 100 µM (inactive) in the assay on NCI-H226; > 100 µM (inactive) with SW-620. In addition, the GI50 with COLO 205 is > 100 µM (inactive).
Turning to `COc1cc(CO)c(CC(=O)NCCCc2ccccc2)cc1OC`, the GI50 in the assay with OVCAR-8, with M14, in the assay with SK-MEL-2, in the assay on A498, in the assay on HOP-92 and in the assay on TK-10 was > 100 µM (inactive) throughout. Besides, the GI50 with 786-0 was > 100 µM (inactive); with SNB-19 it was > 100 µM (inactive); with KM12 it was 54.6 µM (inactive); with OVCAR-3 it was > 100 µM (inactive); with SN12C, > 100 µM (inactive); with HT-29 it was > 100 µM (inactive). Besides, the GI50 with UO-31, with OVCAR-5, in the assay on IGROV-1, with NCI-H226, in the assay on SW-620 and in the assay on COLO 205 was > 100 µM (inactive) throughout.
Consider `C=C1CCC2[C@@H](CCC3[C@]2(C)CCC[C@]3(C)C(=O)OC)C1CCO` (some centres undefined), for which the GI50 with OVCAR-8 is 18.8 µM (inactive); with M14, 13.6 µM (inactive); with SK-MEL-2, 15.1 µM (inactive); in the assay with A498, 15.8 µM (inactive); in the assay on HOP-92 it was 7.08 µM (inactive); with TK-10, 18.6 µM (inactive). For the same compound, the GI50 in the assay with 786-0 is 18.3 µM (inactive); in the assay on SF-295, 16.3 µM (inactive); with SNB-19, 14 µM (inactive); with KM12, 12.5 µM (inactive); in the assay with OVCAR-3 it was 12.6 µM (inactive); in the assay on SN12C, 11.9 µM (inactive). The GI50 in the assay on HT-29 is 4.37 µM (inactive); in the assay with UO-31, 14.7 µM (inactive); in the assay with OVCAR-5, 14.9 µM (inactive); in the assay on IGROV-1, 13.6 µM (inactive); in the assay on NCI-H226 it was 14.4 µM (inactive); with SW-620, 13.1 µM (inactive). Also, the GI50 in the assay with COLO 205 is 13 µM (inactive).
For the compound `Cc1cnc2nc(-c3ccc4ccccc4c3)cc(O)c2c1`, the GI50 is 0.685 µM (active) in the assay with OVCAR-8; 0.547 µM (active) in the assay with M14; > 100 µM (inactive) in the assay on SK-MEL-2; 0.421 µM (active) in the assay with A498; 2.4 µM (inactive) in the assay with TK-10; 0.61 µM (active) in the assay with 786-0. In addition, the GI50 is 0.908 µM (active) in the assay with SNB-19; 0.444 µM (active) in the assay on KM12; 0.966 µM (active) in the assay with SN12C; 0.53 µM (active) in the assay with HT-29; 0.847 µM (active) in the assay on UO-31; 0.855 µM (active) in the assay with OVCAR-5. Moreover, the GI50 in the assay with IGROV-1 was 0.843 µM (active); in the assay with NCI-H226 it was 0.504 µM (active); in the assay with SW-620, 0.359 µM (active); in the assay with COLO 205, 0.342 µM (active).
